Results published in PubChem BioAssay (NCI).
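Each compound was tested at five concentrations against cells in 96-well plates for 48 hours. At the TGI there is no net growth.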

Tests used:
Assay in all cases: NCI tumour cell line growth inhibition, 48 h
CCRF-CEM leukemia = test system: CCRF-CEM leukemia
HCT-116 colon = test system: HCT-116 colon
RXF 393 renal = test system: RXF 393 renal
SK-MEL-28 melanoma = test system: SK-MEL-28 melanoma
NCI-H460 lung = test system: NCI-H460 lung
SNB-75 CNS = test system: SNB-75 CNS
OVCAR-8 ovarian = test system: OVCAR-8 ovarian
NCI-H226 lung = test system: NCI-H226 lung
786-0 renal = test system: 786-0 renal
A549 NSCLC = test system: A549 NSCLC
MOLT-4 leukemia = test system: MOLT-4 leukemia
KM20L2 colon = test system: KM20L2 colon
SN12C renal = test system: SN12C renal
RXF-631 renal = test system: RXF-631 renal
UACC-257 melanoma = test system: UACC-257 melanoma
OVCAR-4 ovarian = test system: OVCAR-4 ovarian
SF-295 CNS = test system: SF-295 CNS
OVCAR-5 ovarian = test system: OVCAR-5 ovarian
M19-MEL melanoma = test system: M19-MEL melanoma
HT29 colon = test system: HT29 colon
HOP-62 NSCLC = test system: HOP-62 NSCLC
A498 renal = test system: A498 renal
K-562 leukemia = test system: K-562 leukemia
DMS 114 small cell lung = test system: DMS 114 small cell lung
IGROV1 ovarian = test system: IGROV1 ovarian
SW-620 colon = test system: SW-620 colon
DMS 273 small cell lung = test system: DMS 273 small cell lung
SF-268 CNS = test system: SF-268 CNS
U251 CNS = test system: U251 CNS
TK-10 renal = test system: TK-10 renal
NCI-H522 lung = test system: NCI-H522 lung
SK-MEL-5 melanoma = test system: SK-MEL-5 melanoma
HOP-18 NSCLC = test system: HOP-18 NSCLC
CAKI-1 renal = test system: CAKI-1 renal
XF 498 CNS = test system: XF 498 CNS
LXFL 529 NSCLC = test system: LXFL 529 NSCLC
EKVX NSCLC = test system: EKVX NSCLC
SK-MEL-2 melanoma = test system: SK-MEL-2 melanoma
HL-60(TB) leukemia = test system: HL-60(TB) leukemia
OVCAR-3 ovarian = test system: OVCAR-3 ovarian
MALME-3M melanoma = test system: MALME-3M melanoma
M14 melanoma = test system: M14 melanoma
COLO 205 colon = test system: COLO 205 colon
DLD-1 colon = test system: DLD-1 colon
KM12 colon = test system: KM12 colon
SF-539 CNS = test system: SF-539 CNS
HCC-2998 colon = test system: HCC-2998 colon
ACHN renal = test system: ACHN renal
HCT-15 colon = test system: HCT-15 colon
HOP-92 NSCLC = test system: HOP-92 NSCLC
UACC-62 melanoma = test system: UACC-62 melanoma
NCI-H23 lung = test system: NCI-H23 lung
SNB-19 CNS = test system: SNB-19 CNS
LOX IMVI melanoma = test system: LOX IMVI melanoma
SR leukemia = test system: SR leukemia
SNB-78 CNS = test system: SNB-78 CNS
SK-OV-3 ovarian = test system: SK-OV-3 ovarian
UO-31 renal = test system: UO-31 renal

For `O=C(NC1C=Nc2ccccc2NC1=O)c1ccccc1Cl` (stereo not drawn), the TGI (CCRF-CEM leukemia) was greater than 100 µM, the TGI (HCT-116 colon) was greater than 100 µM and the TGI (RXF 393 renal) was 62.9 µM. It also gave a TGI (SK-MEL-28 melanoma) greater than 100 µM, a TGI (NCI-H460 lung) greater than 100 µM and a TGI (SNB-75 CNS) greater than 100 µM. For the same compound, the TGI (OVCAR-8 ovarian) was greater than 100 µM, the TGI (NCI-H226 lung) was greater than 100 µM and the TGI (786-0 renal) was greater than 100 µM. For the same compound, the TGI (A549 NSCLC) was greater than 100 µM, the TGI (MOLT-4 leukemia) was 54.4 µM and the TGI (KM20L2 colon) was greater than 100 µM. It also gave a TGI (SN12C renal) greater than 100 µM, a TGI (RXF-631 renal) greater than 100 µM and a TGI (UACC-257 melanoma) greater than 100 µM. For the same compound, the TGI (OVCAR-4 ovarian) was greater than 100 µM, the TGI (SF-295 CNS) was greater than 100 µM and the TGI (OVCAR-5 ovarian) was greater than 100 µM. The TGI (M19-MEL melanoma) was greater than 100 µM, the TGI (HT29 colon) was greater than 100 µM and the TGI (HOP-62 NSCLC) was greater than 100 µM. The TGI (A498 renal) was greater than 100 µM, the TGI (K-562 leukemia) was 52.7 µM and the TGI (DMS 114 small cell lung) was greater than 100 µM. The TGI (IGROV1 ovarian) was greater than 100 µM, the TGI (SW-620 colon) was 29 µM and the TGI (DMS 273 small cell lung) was greater than 100 µM. For the same compound, the TGI (SF-268 CNS) was greater than 100 µM, the TGI (U251 CNS) was greater than 100 µM and the TGI (TK-10 renal) was greater than 100 µM. The TGI (NCI-H522 lung) was greater than 100 µM, the TGI (SK-MEL-5 melanoma) was greater than 100 µM and the TGI (HOP-18 NSCLC) was greater than 100 µM. For the same compound, the TGI (CAKI-1 renal) was greater than 100 µM, the TGI (XF 498 CNS) was greater than 100 µM and the TGI (LXFL 529 NSCLC) was greater than 100 µM. It also gave a TGI (EKVX NSCLC) greater than 100 µM, a TGI (SK-MEL-2 melanoma) greater than 100 µM and a TGI (HL-60(TB) leukemia) of 54.1 µM. For the same compound, the TGI (OVCAR-3 ovarian) was greater than 100 µM, the TGI (MALME-3M melanoma) was greater than 100 µM and the TGI (M14 melanoma) was greater than 100 µM. For the same compound, the TGI (COLO 205 colon) was 52.7 µM, the TGI (DLD-1 colon) was greater than 100 µM and the TGI (KM12 colon) was greater than 100 µM. It also gave a TGI (SF-539 CNS) greater than 100 µM, a TGI (HCC-2998 colon) greater than 100 µM and a TGI (ACHN renal) greater than 100 µM. It also gave a TGI (HCT-15 colon) greater than 100 µM, a TGI (HOP-92 NSCLC) greater than 100 µM and a TGI (UACC-62 melanoma) greater than 100 µM. It also gave a TGI (NCI-H23 lung) greater than 100 µM, a TGI (SNB-19 CNS) greater than 100 µM and a TGI (LOX IMVI melanoma) greater than 100 µM. For the same compound, the TGI (SR leukemia) was greater than 100 µM, the TGI (SNB-78 CNS) was greater than 100 µM and the TGI (SK-OV-3 ovarian) was greater than 100 µM. It also gave a TGI (UO-31 renal) greater than 100 µM.

Work on `Cc1ccc(Nc2nc(C)c(C(/C=C/c3ccc4c(c3)OCO4)=N/Nc3ccc([N+](=O)[O-])cc3[N+](=O)[O-])s2)c([N+](=O)[O-])c1` yielded a TGI (CCRF-CEM leukemia) greater than 100 µM, a TGI (HCT-116 colon) greater than 100 µM and a TGI (RXF 393 renal) greater than 100 µM. The TGI (SK-MEL-28 melanoma) was greater than 100 µM, the TGI (NCI-H460 lung) was greater than 100 µM and the TGI (SNB-75 CNS) was greater than 100 µM. It also gave a TGI (OVCAR-8 ovarian) greater than 100 µM, a TGI (NCI-H226 lung) of 90.1 µM and a TGI (786-0 renal) greater than 100 µM. It also gave a TGI (A549 NSCLC) greater than 100 µM, a TGI (MOLT-4 leukemia) greater than 100 µM and a TGI (KM20L2 colon) greater than 100 µM. For the same compound, the TGI (SN12C renal) was greater than 100 µM, the TGI (RXF-631 renal) was greater than 100 µM and the TGI (UACC-257 melanoma) was greater than 100 µM. It also gave a TGI (OVCAR-4 ovarian) greater than 100 µM, a TGI (SF-295 CNS) greater than 100 µM and a TGI (OVCAR-5 ovarian) greater than 100 µM. For the same compound, the TGI (M19-MEL melanoma) was greater than 100 µM, the TGI (HT29 colon) was greater than 100 µM and the TGI (HOP-62 NSCLC) was greater than 100 µM. The TGI (K-562 leukemia) was greater than 100 µM, the TGI (DMS 114 small cell lung) was greater than 100 µM and the TGI (IGROV1 ovarian) was greater than 100 µM. It also gave a TGI (SW-620 colon) greater than 100 µM, a TGI (DMS 273 small cell lung) greater than 100 µM and a TGI (SF-268 CNS) greater than 100 µM. It also gave a TGI (U251 CNS) greater than 100 µM, a TGI (TK-10 renal) greater than 100 µM and a TGI (NCI-H522 lung) of 37.4 µM. The TGI (HOP-18 NSCLC) was 63.7 µM, the TGI (CAKI-1 renal) was greater than 100 µM and the TGI (XF 498 CNS) was 56.2 µM. The TGI (LXFL 529 NSCLC) was greater than 100 µM, the TGI (EKVX NSCLC) was greater than 100 µM and the TGI (SK-MEL-2 melanoma) was greater than 100 µM. For the same compound, the TGI (HL-60(TB) leukemia) was 95 µM, the TGI (OVCAR-3 ovarian) was greater than 100 µM and the TGI (MALME-3M melanoma) was greater than 100 µM. For the same compound, the TGI (M14 melanoma) was greater than 100 µM, the TGI (COLO 205 colon) was greater than 100 µM and the TGI (DLD-1 colon) was greater than 100 µM. For the same compound, the TGI (KM12 colon) was greater than 100 µM, the TGI (SF-539 CNS) was greater than 100 µM and the TGI (HCC-2998 colon) was greater than 100 µM. For the same compound, the TGI (ACHN renal) was greater than 100 µM, the TGI (HCT-15 colon) was greater than 100 µM and the TGI (UACC-62 melanoma) was 17.8 µM. It also gave a TGI (NCI-H23 lung) greater than 100 µM, a TGI (SNB-19 CNS) greater than 100 µM and a TGI (LOX IMVI melanoma) greater than 100 µM. For the same compound, the TGI (SR leukemia) was greater than 100 µM, the TGI (SNB-78 CNS) was greater than 100 µM and the TGI (SK-OV-3 ovarian) was greater than 100 µM. It also gave a TGI (UO-31 renal) greater than 100 µM.
